The subject of the assay is human basophils. Briefly: Inhibition of histamine release from immunologically stimulated human basophils. To be noted: concentration causing 50% inhibition of histamine release, by linear regression, active if IC50 ≦ 48 µM. The format is cell-based. The procedure:
The blood is allowed to sediment at room temperature in two 50 ml polycarbonate centrifuge tubes until a sharp interface develops between the red cells and plasma (60-90 minutes). The plasma (top) layer from each tube is withdrawn by pipet and transferred to respective 50 ml polycarbonate tubes. The plasma is centrifuged for 8 minutes at 110X G at 4°C. The supernatant is carefully poured off as completely as possible and the cell button is resuspended in 2-3 ml of Tris-A buffer using a siliconized Pasteur pipet. The resuspension is accomplished by drawing the liquid gently in an out of the pipet, with the tip below the liquid until an even suspension of cells is obtained. Sufficient Tris-A buffer is then added to bring the volume in the tube to about 45 ml and the tube is centrifuged at 110X G for 8 minutes at 4°C. The supernatant is poured off and the cell button is resuspended and centrifuged as described above. The supernatant is poured off and the cell button is suspended in 2-3 ml of Tris-ACM buffer to make the final volume sufficient to allow addition to the reaction tubes. Reaction tubes containing anti-IgE or antigens, either alone or with test compound in a total volume of 0.2 ml are prepared and placed in a 37°C bath. The cells are warmed to 37°C and frequently swirled to ensure an even suspension, while 1.0 ml aliquots are added to each reaction tube. The tubes are then incubated for 60 minutes at 37°C, vortexing the tubes gently every 15 minutes to keep the cells evenly suspended. When the reaction is complete, the tubes are centrifuged at 4°C for 10 minutes at 1500 rpm to sediment the cells. […] Blanks and totals are included in each test. The blanks have cells and all reagents except antigen or anti-IgE. The totals contain 0.24 ml of 8% perchloric acid, one ml of cells and 0.2 ml of buffer. All samples are then centrifuged to remove the precipitate protein. […] The automated system consists of the following Technicon Autoanalyzer II components Sampler IV, Dual-Speed Proportioning Pump III, Fluoronephelometer with a narrow pass primary filter 7-60 and a secondary filter 3-74, Recorder, and Digital Printer. The manifold used is the one described by Siraganian vide supra, with the following modifications: the dialyzer is omitted; all pumping tubes pass through a single proportioning pump with large capacity and twice the volume of sample is taken for anaylsis. The automated chemistry consists of the following steps: Extraction from alkaline saline into butanol, back extraction into dilute hydrochloric acid by addition of heptane, reaction of histamine with o-phthaldialdehyde (OPT) at high pH and conversion of the OPT adduct to a stable fluorophore with phosphoric acid. The reaction product is then passed through the fluorometer. The full scale response is adjusted to 50 ng histamine base with a threshold sensitivity of approximately 0.5 ng. The instrument blank (wash) is substracted from the ng histamine of each sample. Then the ng histamine of each sample is divided by the mean of the three totals (cells lysed with perchloric acid) to obtain percent release. Control samples contain antigen but no test compound. Blank (or spontaneous release) samples contain neither antigen nor test compound. The mean of the blanks (three replicates) is subtracted from the percent release for controls and test compounds.

Structures can show the parent of a compound that is named as a salt. Where two headings read alike, the source gives them in different places.

Experimental findings from patent publication EP0233461B2, “4,5,6-Substituted-2-pyrimidinamines” (AMERICAN CYANAMID COMPANY, priority 1986, dated 1987) are described below.

Consider `CN(C)c1cccc(Nc2nccc(-c3cccs3)n2)c1` [N,N-Dimethyl-N'-[4-(2-thienyl)-2-pyrimidinyl]-1,3-benzenediamine], for which, for the setting “Homo sapiens, read-out: IC50”, the IC50 came to 2400 nM.
For the compound `COc1ccc(Nc2nccc(-c3ccncc3)n2)cc1` [N-(4-Methoxyphenyl)-4-(4-pyridinyl)-2-pyrimidinamine], the IC50 (Homo sapiens, read-out: IC50) stood at 1000 nM.
With `COc1ccc(C)cc1Nc1nccc(-c2ccncc2)n1` [N-(2-Methoxy-5-methylphenyl)-4-(4-pyridinyl)-2-pyrimidinamine], the 50% inhibitory concentration (IC50) (Homo sapiens, read-out: IC50) was 6900 nM.
Same read-out and setting: the result for `Cc1cccc(Nc2nccc(-c3ccsc3)n2)c1` [N-(3-Methylphenyl)-4-(3-thienyl)-2-pyrimidinamine] reads 3800 nM.
In the case of `CN(C)c1ccc(Nc2nccc(-c3cccnc3)n2)cc1` [N,N-Dimethyl-N'-[4-(3-pyridinyl)-2-pyrimidinyl]-1,4-benzenediamine, trihydrochloride], the IC50 (trihydrochloride, read-out: IC50) was 1500 nM.
For `CC(NC=O)c1cccc(Nc2nccc(-c3cccnc3)n2)c1` (centres unmarked) [N-[1-[3-[[4-(3-Pyridinyl)-2-pyrimidinyl]amino]phenyl]ethyl]formamide], the IC50 (Homo sapiens, read-out: IC50) is 4600 nM.
As to `CN(C)c1cccc(Nc2nccc(-c3ccccn3)n2)c1` [N,N-Dimethyl-N'-[4-(2-pyridinyl)-2-pyrimidinyl]-1,3-benzenediamine], the IC50 (Homo sapiens, read-out: IC50) is 500 nM.
Take `CCN(CC)c1ccc(Nc2nccc(-c3ccc(C)o3)n2)cc1` [N,N-Diethyl-N'-[4-(5-methyl-2-fur-anyl)-2-pyrimidinyl]-1,4-benzene-diamine]: the IC50 (Homo sapiens, read-out: IC50) was determined as 28000 nM.
Consider `c1ccc(-c2ccnc(Nc3cccc4ccccc34)n2)nc1` [N-1-Naphthalenyl-4-(2-pyridinyl)-2-pyrimidinamine], for which the IC50 (Homo sapiens, read-out: IC50) was 3000 nM.
As to `CN(C)CCCOc1ccc(Nc2nccc(-c3ccncc3)n2)cc1` [N-[4-[3-(Dimethylamino)propoxy]phenyl]-4-(4-pyridinyl)-2-pyrimidinamine], for the setting “Homo sapiens, read-out: IC50”, the IC50 is 1300 nM.
The same measure, in the same setting: the result for `COc1ccccc1Nc1nccc(-c2cccnc2)n1` [N-(2-Methoxyphenyl)-4-(3-pyridinyl)-2-pyrimidinamine] reads 9800 nM; that for `FC(F)(F)c1cccc(Nc2nccc(-c3cccnc3)n2)c1` [4-(3-Pyridinyl)-N-[3-(trifluoromethyl)phenyl]-2-pyrimidinamine, hydrochloride], 700 nM.
As for `CN(C)c1ccc(Nc2nccc(-c3ccncc3)n2)cc1` [N-[4-(Dimethylamino)phenyl]-4-(4-pyridinyl)-2-pyrimidinamine], under “read-out: IC50”, the IC50 is 3800 nM.
Consider `CCc1cccc(Nc2nccc(-c3ccsc3)n2)c1` [N-(3-Ethylphenyl)-4-(3-thienyl)-2-pyrimidinamine], for which the IC50 (Homo sapiens, read-out: IC50) was 1100 nM.
Turning to `Cc1cccc(Nc2nccc(-c3cccs3)n2)c1` [N-(3-Methylphenyl)-4-(2-thienyl)-2-pyrimidinamine], the IC50 (Homo sapiens, read-out: IC50) was determined as 300 nM.
Turning to `CCN(CC)c1ccc(Nc2nccc(-c3ccccn3)n2)cc1` [N,N-Diethyl-N'-[4-(2-pyridinyl)-2-pyrimidinyl]-1,4-benzenediamine], for the setting “Homo sapiens, read-out: IC50”, the IC50 is 10100 nM.
As to `CC(=O)Nc1cccc(Nc2nccc(-c3cccnc3)n2)c1` [N-[3-[[4-(3-Pyridinyl)-2-pyrimidinyl]amino]-phenyl]acetamide], where the note is “Homo sapiens, read-out: IC50”, the IC50 came to 5000 nM.
As to `Cc1cccc(Nc2nccc(-c3cccnc3)n2)c1` [N-(3-Methylphenyl)-4-(3-pyridinyl)-2-pyrimidinamine], the IC50 (Homo sapiens, read-out: IC50) was found to be 1500 nM.
As for `CN(C)c1cccc(Nc2nccc(-c3ccccn3)n2)c1` [N,N-Dimethyl-N'-[4-(2-pyridinyl)-2-pyrimidinyl]-1,3-benzenediamine, dihydrochloride], the IC50 (dihydrochloride, read-out: IC50) was found to be 500 nM.
Under “Homo sapiens”, `Cc1cc(C)cc(Nc2nccc(-c3cccnc3)n2)c1` [N-(3,5-Dimethylphenyl)-4-(3-pyridinyl)-2-pyrimidinamine, sulfate] gave an IC50 of 3000 nM.
`Nc1ccc(Nc2nccc(-c3ccncc3)n2)cc1` [N-[4-(4-Pyridinyl)-2-pyrimidinyl)-1,4-benzenediamine]: for the setting “read-out: IC50”, the IC50 was determined as 2400 nM.
Turning to `Fc1cccc(F)c1Nc1nccc(-c2cccnc2)n1` [N-(2,6-Difluorophenyl)-4-(3-pyridinyl)-2-pyrimidinamine], for the setting “Homo sapiens, read-out: IC50”, the IC50 is 22000 nM.
With `Cc1ccc(-c2ccnc(Nc3cccc(N(C)C)c3)n2)o1` [N,N-Dimethyl-N'-[4-(5-methyl-2-furanyl)-2-pyrimidinyl]-1,3-benzenediamine], the IC50 (Homo sapiens, read-out: IC50) was found to be 1600 nM.
For `Fc1ccc(Nc2nccc(-c3ccncc3)n2)c(F)c1` [N-(2,4-Difluorophenyl)-4-(4-pyri-dinyl)-2-pyrimidinamine], where the note is “Homo sapiens, read-out: IC50”, the IC50 was below 48000 nM.
Still for that read-out and setting: the same measure for `CN1CCN(c2ccc(Nc3nccc(-c4ccncc4)n3)cc2)CC1` [N-[4-(4-Methyl-1-piperazinyl)phenyl]-4-(4-pyridinyl)-2-pyrimidinamine]: 600 nM; for `CN1CCN(c2ccc(Nc3nccc(-c4cccnc4)n3)cc2)CC1` [N-[4-(4-Methyl-1-piperazinyl)phenyl]-4-(3-pyridinyl)-2-pyrimidinamine]: 1500 nM.
On to `Cc1ccc(Nc2nccc(-c3cccnc3)n2)cc1Cl` [N-(3-Chloro-4-methylphenyl)-4-(3-pyridinyl)-2-pyrimidinamine], for which, under “Homo sapiens, read-out: IC50”, the IC50 came to 9300 nM.
`CCc1ccc(Nc2nccc(-c3ccnc4ccccc34)n2)cc1` [N-(4-Ethylphenyl)-4-(4-quinolinyl)-2-pyrimidinamine]: for the setting “Homo sapiens, read-out: IC50”, the IC50 came out at 4000 nM.
On to `CN(C)c1cccc(Nc2nccc(-c3cccnc3)n2)c1` [N,N-Dimethyl-N'-[4-(3-pyridinyl)-2-pyrimidinyl]-1,3-benzenediamine], for which, for the setting “Homo sapiens, read-out: IC50”, the IC50 was determined as 1700 nM.
As for `CC(=O)Nc1ccc(Nc2nccc(-c3ccccn3)n2)cc1` [N-[4-[[4-(2-Pyridinyl)-2-pyrimidinyl]amino]-phenyl]acetamide], for the setting “Homo sapiens, read-out: IC50”, the IC50 worked out at 1500 nM.
For `Nc1ccc(Nc2nccc(-c3ccncc3)n2)cc1` [N-[4-(4-Pyridinyl)-2-pyrimidinyl]-1,4-benzenediamine, hydrochloride], the IC50 (Homo sapiens, read-out: IC50) was 3000 nM.
Turning to `COc1cccc(Nc2nccc(-c3cccs3)n2)c1` [N-(3-Methoxyphenyl)-4-(2-thienyl)-2-pyrimidinamine], for the setting “Homo sapiens, read-out: IC50”, the IC50 is 900 nM.
As to `c1ccc(Nc2nccc(-c3cccnc3)n2)cc1` [N-Phenyl-4-(3-pyridinyl)-2-pyrimidinamine, phosphate], under “phosphate, read-out: IC50”, the IC50 came out at 2700 nM.
For the compound `Cc1cc(C)cc(Nc2nccc(-c3cccs3)n2)c1` [N-(3,5-Dimethylphenyl)-4-(2-thienyl)-2-pyrimidinamine], the IC50 (Homo sapiens, read-out: IC50) was determined as 4300 nM.
`Clc1cccc(Nc2nccc(-c3ccncc3)n2)c1` [N-(3-Chlorophenyl)-4-(4-pyridinyl)-2-pyrimidinamine]: the IC50 (Homo sapiens, read-out: IC50) was determined as 3100 nM.
On to `CC(N)c1cccc(Nc2nccc(-c3cccnc3)n2)c1` (centres unmarked) [N-[3-(1-Aminoethyl)phenyl)-4-(3-pyridinyl)-2-pyrimidinanine, trihydrochloride], for which the IC50 (Homo sapiens, read-out: IC50) was 5100 nM.
In the case of `c1ccc(Nc2nccc(-c3ccncc3)n2)cc1` [N-Phenyl-4-(4-pyridinyl)-2-pyrimidinamine, dinitrate], inhibition (dinitrate) was half-maximal at 1200 nM (IC50).
Turning to `COc1cccc(Nc2nccc(-c3cc4ccccc4o3)n2)c1` [4-(2-Benzofuranyl)-N-(3-methoxyphenyl)-2-pyrimidinamine], the IC50 (Homo sapiens, read-out: IC50) worked out at 1200 nM.
Same read-out and setting: the same measure for `c1ccc(Nc2nccc(-c3ccco3)n2)cc1` [4-(2-Furanyl)-N-phenyl-2-pyrimidinamine]: 48000 nM; for `Brc1ccc(Nc2nccc(-c3cccnc3)n2)cc1` [N-(4-Bromophenyl)-4-(3-pyridinyl)-2-pyrimidinamine]: 2300 nM; for `CC(O)c1ccc(Nc2nccc(-c3cccnc3)n2)cc1` (stereo not drawn) [α-Methyl-4-[[4-(3-pyridinyl)-2-pyrimidinyl]amino]benzenemethanol]: 4500 nM.
